Source: article PMC7539972, “Role of Two Exceptional trans Adenylation Domains and MbtH‐like Proteins in the Biosynthesis of the Nonribosomal Peptide WS9324A from Streptomyces calvus ATCC 13382” (Chembiochem, 2020)

Tests used:
Assay in all cases: […]PPi release adenylation assay
Format in all cases: biochemical
Cal22Thr [1] = biological target: T1, Cal22Thr (Streptomyces calvus, UniProt A0A0N9LS39); settings: co-substrate threonine 0.2 mM; 0.15 mM ATP, 1 mM MgCl2, 25 °C, 3 h; labelled compound
T1 construct: gene cal22; complete ORF, A-PCP didomain, N-terminal His6 tag; E. coli BL21(DE3) ΔybdZ, coexpressed with untagged Cal4 (Cal4 not copurified)
T1 sequence (A0A0N9LS39 entry or part of it): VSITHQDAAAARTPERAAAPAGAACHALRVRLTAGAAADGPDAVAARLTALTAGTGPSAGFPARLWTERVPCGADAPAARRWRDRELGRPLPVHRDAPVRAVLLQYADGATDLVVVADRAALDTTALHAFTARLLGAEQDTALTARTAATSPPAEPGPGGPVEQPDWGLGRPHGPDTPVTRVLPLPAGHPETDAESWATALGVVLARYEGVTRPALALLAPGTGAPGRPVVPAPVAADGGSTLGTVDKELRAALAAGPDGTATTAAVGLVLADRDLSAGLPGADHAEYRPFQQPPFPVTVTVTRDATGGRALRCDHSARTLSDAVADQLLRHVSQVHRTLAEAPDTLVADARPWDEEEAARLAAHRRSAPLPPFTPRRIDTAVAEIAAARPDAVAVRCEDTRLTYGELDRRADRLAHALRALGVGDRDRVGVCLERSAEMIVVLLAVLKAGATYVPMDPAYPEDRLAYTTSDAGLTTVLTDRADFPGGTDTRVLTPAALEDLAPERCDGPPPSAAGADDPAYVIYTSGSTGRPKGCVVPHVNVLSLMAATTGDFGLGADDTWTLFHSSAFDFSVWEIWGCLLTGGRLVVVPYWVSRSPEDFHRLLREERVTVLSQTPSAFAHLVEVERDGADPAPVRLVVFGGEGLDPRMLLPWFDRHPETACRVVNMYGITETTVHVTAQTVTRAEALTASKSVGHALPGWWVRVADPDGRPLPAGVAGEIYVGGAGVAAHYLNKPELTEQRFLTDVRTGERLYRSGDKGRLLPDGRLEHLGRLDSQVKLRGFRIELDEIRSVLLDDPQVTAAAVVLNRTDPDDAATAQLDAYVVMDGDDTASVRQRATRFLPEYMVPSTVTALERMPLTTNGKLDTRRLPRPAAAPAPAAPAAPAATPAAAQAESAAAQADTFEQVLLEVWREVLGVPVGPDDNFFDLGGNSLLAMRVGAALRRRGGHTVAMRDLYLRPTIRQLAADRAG

Cal23Asn/Cal4 complex [2] = biological target: T2, Cal23Asn/Cal4 complex (Streptomyces calvus, UniProt A0A0N9M336); settings: co-substrate asparagine 0.2 mM; 0.15 mM ATP, 1 mM MgCl2, 25 °C, 3 h; labelled compound
T2 construct: gene cal23; complete ORF, A-PCP didomain, N-terminal His6 tag; copurified with untagged MbtH-like protein Cal4; E. coli BL21(DE3) ΔybdZ; with MbtH-like protein
T2 sequence (A0A0N9M336 entry or part of it): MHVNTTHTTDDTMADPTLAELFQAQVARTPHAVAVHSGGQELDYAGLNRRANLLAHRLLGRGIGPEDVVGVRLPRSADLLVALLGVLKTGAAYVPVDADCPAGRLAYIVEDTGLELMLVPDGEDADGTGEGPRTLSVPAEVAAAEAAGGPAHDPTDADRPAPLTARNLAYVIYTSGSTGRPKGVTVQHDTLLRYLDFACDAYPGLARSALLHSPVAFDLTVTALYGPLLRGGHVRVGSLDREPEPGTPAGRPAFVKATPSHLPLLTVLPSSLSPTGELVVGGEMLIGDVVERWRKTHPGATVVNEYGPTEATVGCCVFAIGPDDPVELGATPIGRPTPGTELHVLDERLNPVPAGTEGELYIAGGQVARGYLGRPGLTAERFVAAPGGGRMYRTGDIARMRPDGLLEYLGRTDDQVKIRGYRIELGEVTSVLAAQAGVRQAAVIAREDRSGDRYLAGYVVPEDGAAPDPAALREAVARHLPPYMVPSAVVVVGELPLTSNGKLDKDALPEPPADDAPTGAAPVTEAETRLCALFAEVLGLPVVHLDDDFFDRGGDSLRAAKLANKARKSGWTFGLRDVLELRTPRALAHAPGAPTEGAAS
T2 sequence (A0A0N9M601 entry or part of it, further chain): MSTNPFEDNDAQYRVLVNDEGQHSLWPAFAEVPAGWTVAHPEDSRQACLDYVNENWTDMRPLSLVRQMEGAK

Cal23Asn/Cal4 complex [3] = biological target: T2, Cal23Asn/Cal4 complex; settings: 0.2 mM amino acid, 0.15 mM ATP, 1 mM MgCl2, 25 °C, 3 h, 30 μM enzyme; most active of 20 proteinogenic amino acids
Cal22Thr [4] = biological target: T1, Cal22Thr; settings: 0.2 mM amino acid, 0.15 mM ATP, 1 mM MgCl2, 25 °C, 3 h, 30 μM enzyme; most active of 20 proteinogenic amino acids

Nc1ncnc2c1ncn2[C@@H]1O[C@H](COP(=O)(O)OP(=O)(O)OP(=O)(O)O)[C@@H](O)[C@H]1O [ATP]
[33P]PPi release adenylation assay (Cal22Thr [1]): the reaction of ATP with an amino acid to form an amino acyl adenylate was measured | [33P]PPi release adenylation assay (Cal23Asn/Cal4 complex [2]): the reaction of ATP with an amino acid to form an amino acyl adenylate was measured

NC(=O)C[C@H](N)C(=O)O [asparagine]
relative adenylation activity (Cal23Asn/Cal4 complex [3]): Cal23Asn/Cal4 complex was most active towards asparagine, the predicted substrate of the A‐domain

C[C@@H](O)[C@H](N)C(=O)O [threonine]
relative adenylation activity (Cal22Thr [4]): Cal22Thr was observed to be most specific towards its predicted substrate threonine
